How the values were obtained:
[1] = test system: PC3-luc cells; test: PCa intracardiac injection model, bone destruction by CT and survival; format: in vivo, mice; details: oral 150 mg KBU2046/kg daily; intraperitoneal ZA 100 μg/kg weekly; CT
[2] = test system: RAW 267.4 cells; test: Osteo Assay pit formation, osteoclast-mediated bone degradation; format: cell-based, mouse
Procedure: FIG. 4 represents the KBU2046 inhibition of osteoclast function. FIG. 4A compares effects on Raf1 activation. RAW 267.4 cells were treated with RANKL for 4 days, treated with 10 μM KBU2046 for the indicated time periods, and Western blot for the denoted proteins performed. (B) Effects on cell morphology. RAW 267.4 cells were treated with RANKL and with KBU2046 for 4 days, or not, and denoted, and stained for actin (green) and DAPI (blue); white arrow denotes an actin ring, yellow arrow a resorptive cavity. Representative immunofluorescent images are depicted. (C) Tartrate resistant acid phosphatase (TRAP) expression. […] RAW 267.4 cells were plated onto Osteo Assay plates, treated with RANKL for 6 days and with KBU2046 (or vehicle for controls) as indicated and bone surface area quantified. Data are the mean±SEM (N=3 replicates) of bone surface area, expressed as the percentage of control cells; * denotes P<0.05 compared to control.
To determine whether KBU2046 inhibits osteoclast-mediated bone degradation, we used Corning Osteo Assay Surface plates, which are coated with calcium-phosphate-based bone mineral. This platform supports osteoclast growth, allowing for the quantitative measurement of bone degradation, and has previously been used to measure bisphosphonate-mediated inhibition of bone degradation (40). […]

[3] = test system: Raf1; test: Western blot of Raf1 phosphorylation in RANKL treated osteoclast cells; format: cell-based, mouse; details: 10 μM KBU2046, RANKL treated RAW 267.4 cells, time-dependent
Description: To examine this paradigm we first evaluated whether KBU2046 would inhibit Raf1 phosphorylation in osteoclasts. After treatment with RANKL, RAW 267.4 cells differentiate into mature osteoclasts. Upon maturation osteoclast become multinucleated, express tartrate resistant acid phosphatase (TRAP), and have the capacity to form actin rings that create an occluded cavity in which bone is degraded. KBU2046 inhibits phosphorylation of Raf1's activation motif in RANKL treated RAW 267.4 osteoclast cells, and does so in a time-dependent manner (FIG. 4A). In osteoclasts Raf1 is known to phosphorylate MEK1/2, in turn phosphorylating ERK1/2 (Bradley et al., J Cell Biochem 104, 1439-1451 (2008)), with the latter acting to stimulate osteoclast differentiation and bone resorptive activity (He et al., PLoS One 6, e24780 (2011); and Nakamura et al., J Bone Miner Res 18, 1198-1205 (2003)).
FIG. 4 represents the KBU2046 inhibition of osteoclast function. FIG. 4A compares effects on Raf1 activation. […] RAW 267.4 cells were plated onto Osteo Assay plates, treated with RANKL for 6 days and with KBU2046 (or vehicle for controls) as indicated and bone surface area quantified. Data are the mean±SEM (N=3 replicates) of bone surface area, expressed as the percentage of control cells; * denotes P<0.05 compared to control. […]

`O=C1c2ccccc2OCC1c1ccc(F)cc1` (centres unmarked) [KBU2046, 3-(4-fluorophenyl)chroman-4-one] was tested, and the “improvement of femur bone density compared to control” value [1] was 22±2.4%, the “inhibition of bone destruction in the mandible compared to control” value [1] was 33±4.2% and the “increase of bone surface area compared with control (mean±SEM)” value ([2]; 10 μmol/L KBU2046, RANKL, 6 days) was 28%±1.4%. The bone surface area ([2]; plates pre-treated with ZA at 2, 10 and 20 μM, KBU2046 10 μM) was “significantly increased” and the “phosphorylation of Raf1's activation motif” value [3] was “inhibits”.

Reference: patent publication US20220133894A1, “BISPHOSPHONATE-LINKED COMPOUNDS” (OREGON HEALTH & SCIENCE UNIVERSITY, priority 2019, published 2022)
